Test results: patent US20250186403A1 (ARIZONA BOARD OF REGENTS ON BEHALF OF THE UNIVERSITY OF …, priority 2022, published 2025)

What was measured:
Cne-WT = assay: Fungistatic/fungicidal assay (MFC); type: cell-based, Cryptococcus neoformans
Description: The assay was performed by microdilution method as explained in materials and method. […] Cells in the wells were mixed by pipetting, and 30 μl of the culture taken from each well was plated onto SD agar plates. […] The MFC is the minimum drug concentration where there are no colonies. If the ratio of MFC/MIC≤4 is considered fungicidal.
Freshly grown Cne-WT colony on SD agar plate was resuspended in sterile water to give an OD600 of 0.1. This fungal suspension was further diluted at 1:500 in RPMI-MOPS media. A volume of 100 μl of the final cell suspension was added to each well in the assay plates. Additionally, 100 μl of final cell suspension was plated onto the SD agar plate to examine the actual cell count; and colonies were counted after 3 days. The assay plates were incubated at 30° C. for 48 h in a humidified incubator. The culture wells were mixed with micropipette tips, and 20 μl of the culture along with 70 μl RPMI-MOPS was plated onto the SD agar plates (100 mm) and incubated at 30° C. for 72 h before counting the colonies. […] The ratio of MFC/MIC≤4 was considered fungicidal and >4 as fungistatic.

[1] = test system: Prp8 intein splicing in Cne-WT; assay: Western blot, in vivo Prp8 intein splicing in Cne; type: cell-based, Cryptococcus neoformans; conditions: Cne-WT incubated with CMN 18 h
Description: TCEP is added to a final concentration of 100 µM and incubated for 24 h. The substrate Nano-Glo luciferase (Promega) was added, and the resulting luminescence was read. IC50 was calculated using GraphPad prism. […] TCEP was added to a concentration of 1 mM and incubated for 24 h. From this reaction mixture, 10 μl was mixed with an equal volume of 2×SDA-PAGE loading dye and loaded onto 12% SDS-PAGE gel without boiling the sample. The gel was scanned with UV using Chemidoc (Bio Rad), and band intensities were quantified using Image Lab software. […] Cells were harvested and washed in PBS, lysed with bead lyser, and centrifuged at 10,000 rpm. An equal quantity of protein (50 μg) from each treatment was loaded onto 12% SDS-PAGE and blotted onto the NC membrane, blocked with 5% skimmed milk. The membrane was probed with anti-prp8 intein rabbit polyclonal sera, followed by goat anti-rabbit HRP antibody. Signals were developed using a chemiluminescent kit. The density of the spliced intein bands (˜20 kDa) were quantified using Image lab software. A band at ˜130 kDa is uncharacterized, as explained below. NC: nitrocellulose. Abs: absorbance
DMSO was used as a control. An equal volume of freshly grown Cne-WT culture (0.2 OD at 600 nm) was added to obtain the final absorbance of 0.1 OD. […] Intensities of bands were quantified by image lab software and compared with that of control.

[2] = test system: recombinant Cne-Prp8 intein; assay: Thermal shift assay; type: binding, Cryptococcus neoformans
Description: The Tm values were calculated by Thermal shift software. […] The assay was repeated three times. […]
Each treatment was done in quadruplicate. The mixture was incubated at room temperature for an hour before transferring to the QuantStudio 5 real-time PCR system (Applied Biosystems) and run with an increasing temperature from 20° C. to 90° C. The temperature at which there was 50% of the peak fluorescence (50% denaturation) was considered as Tm. The analysis was done using the Thermal Shift Assay software (Thermo Fischer Scientific). A graph was drawn using the GraphPad prism Version 9.1.0 after normalizing the fluorescent values. The treatment groups were compared with Student's t-test.

Cne-H99 = assay: Efficacy in cryptococcal pulmonary infection mouse model; type: in vivo, Cryptococcus neoformans; BALB/c mice
Description: Blood samples were collected at 0, 0.5, 1, 2, 4, 8, 12, 16, 24, and 36 h after oral gavage. […] Other PK parameters are in Table 4. The values represent means±SD. […] On day 0, mice were infected with H99 (10^7 cells/mice) intranasally or mock-infected with PBS. Mice were euthanized on day 5, and lungs were dissected out, homogenized in RPMI-1640-MOPS media, and plated onto Sabouraud dextrose agar plates containing antibiotics. Plates were incubated at 30° C. for 72 h, and colonies were counted. […] VC: Vehicle control, (90% corn oil, 10% DMSO). Dpi: Days post-infection. CFU: Colony-forming units.
Efficacy studies in the mouse: The in vivo studies were done in a mouse model with the approval of IACUC, Wadsworth Center, Albany, NY. Male and female BALB/c mice 4-5-week-old were purchased from Jackson laboratory and quarantined for a week before shifting to the experimental room. The mice were grouped randomly with a male: female ratio 1:1, ears were punched as identification code. The formulation of the compound was done by dissolving the CMN in absolute DMSO and diluted in corn oil. The formulations were done daily, just before the dosing. […] Following this, the mice were anesthetized and infected with Cne-H99 cells ([…] in 30 μl PBS/mouse) intranasally. […] Mice were weighed every day, and visual observations were made for activity, movement, coat condition, etc. Food and water were ad libitum. On day 5, the mice were anesthetized and euthanized. Lung tissues were dissected out, weighed, and homogenized in 1 ml RPMI-MOPS media using a glass homogenizer. After log dilution of the tissue suspension in RPMI-MOPS, 100 μl from each dilution was plated onto SD agar plates with antibiotics (20 μg/ml penicillin, 40 μg/ml streptomycin, […], 25 μg/ml chloramphenicol). The plates were incubated at 30° C. for 3 days before counting the colonies. The counts were normalized with the weight of the lung tissue taken during the necropsy. The fungal load in the groups was compared with Student's t-test, and p<0.05 was considered as significant.

CNc1ccc2oc(C[C@H]3O[C@@]4(CC[C@H]3C)O[C@H]([C@H](C)C(=O)c3ccc[nH]3)[C@H](C)C[C@H]4C)nc2c1C(=O)O [CMN, calcimycin]
nature of inhibition (fungistatic/fungicidal) (Cne-WT): fungistatic (>4 as fungistatic) | MFC (Cne-WT; Cryptococcus neoformans, 48 h culture, plated, colonies day 3, read-out: MFC (minimum fungicidal concentration)): > 26 µg/mL | spliced intein (approximately 20 kDa) in western blot [1]: dose-dependent reduction in spliced intein | ΔTm difference between CMN and DMSO ([2]; 1.2 µM CMN): 3 °C | Tm of CnePrp8 intein ([2]; with 1.2 µM CMN (DMSO control 50.8±0.2)): 53.8±0.2 °C | reduction in fungal burden vs vehicle control (Cne-H99; CMN 20 mg/Kg BW orally once daily for 5 days, day 5): 3 fold | fungal burden in the lungs (Cne-H99; CMN 20 mg/Kg BW orally once daily for 5 days, day 5, vehicle 1.8×10^8): 6.3×10^7 CFU/g lung tissue | reduction in lung-fungal load (Cne-H99; CMN 20 mg/kg body weight): 60%
